From US20020111274A1, “1-alkyl-3-[1-(substituted phenyl) benzotriazol-6-yl] uracils” (BASF Aktiengesellschaft, priority 2000, published 2002)

Columns and labels:
Set-up in all cases: scale not given here
GLXMAW Soybean, Williams [1] = experiment: Preemergence herbicidal evaluation, GLXMAW; type: in vivo, Glycine max, (L.) Merr. cv Williams; settings: preemergence
Procedure, shortened: (§1)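 Preemergence soil spray: aqueous acetone, ~0.013–0.800 kg/ha, applied right after sowing (seed/potting-soil mix over ~1 in soil). Greenhouse, routine watering. Scored 4–5 wk post-treatment on a rating scale.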

CASOB Sicklepod [2] = experiment: Postemergence herbicidal evaluation, CASOB; type: in vivo, Cassia obtusifolia, L.; settings: postemergence spray, rated about two-three weeks after treatment
Procedure, shortened: (§2)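 Plants are raised for roughly two weeks, then treated postemergence with compound dispersed in acetone/water (80/20) plus 1.0% seed oil adjuvant, at rates of about 0.006 kg to 0.400 kg per hectare. After greenhouse care, damage is scored two to three weeks later.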

AMBEL Ragweed, Common [3] = experiment: Postemergence herbicidal evaluation, AMBEL; type: in vivo, Ambrosia artemisifolia, L.; settings: postemergence spray, rated about two-three weeks after treatment
Procedure, shortened: as §2

SETVI Foxtail, Green [4] = experiment: Postemergence herbicidal evaluation, SETVI; type: in vivo, Setaria viridis, (L.) Beau; settings: postemergence spray, rated about two-three weeks after treatment
Procedure, shortened: as §2

CASOB Sicklepod [5] = experiment: Preemergence herbicidal evaluation, CASOB; type: in vivo, Cassia obtusifolia, L.; settings: preemergence
Procedure, shortened: as §1

[6] = system: CHEAL Lambsquarters, Common; experiment: Postemergence herbicidal evaluation, CHEAL; type: in vivo, Chenopodium album, L.; settings: postemergence spray, rated about two-three weeks after treatment
Procedure, shortened: as §2

SETVI Foxtail, Green [7] = experiment: Preemergence herbicidal evaluation, SETVI; type: in vivo, Setaria viridis, (L.) Beau; settings: preemergence
Procedure, shortened: as §1

ORYSAT Rice, Tebonnet [8] = experiment: Postemergence herbicidal evaluation, ORYSAT; type: in vivo, Oryza sativa, (L.); settings: postemergence spray, rated about two-three weeks after treatment
Procedure, shortened: as §2

ABUTH Velvetleaf [9] = experiment: Postemergence herbicidal evaluation, ABUTH; type: in vivo, Abutilon theophrasti, Medic.; settings: postemergence spray, rated about two-three weeks after treatment
Procedure, shortened: as §2

GALAP Galium [10] = experiment: Postemergence herbicidal evaluation, GALAP; type: in vivo, Galium aparine; settings: postemergence spray, rated about two-three weeks after treatment
Procedure, shortened: as §2

ZEAMX Corn, Field [11] = experiment: Postemergence herbicidal evaluation, ZEAMX; type: in vivo, Zea mays, L. (Sammel-Bezeichnung); settings: postemergence spray, rated about two-three weeks after treatment
Procedure, shortened: as §2

ORYSAT Rice, Tebonnet [12] = experiment: Preemergence herbicidal evaluation, ORYSAT; type: in vivo, Oryza sativa, (L.); settings: preemergence
Procedure, shortened: as §1

ZEAMX Corn, Field [13] = experiment: Preemergence herbicidal evaluation, ZEAMX; type: in vivo, Zea mays, L. (Sammel-Bezeichnung); settings: preemergence
Procedure, shortened: as §1

ECHOG Barnyardgrass [14] = experiment: Postemergence herbicidal evaluation, ECHOG; type: in vivo, Echinochloa crus-galli, (L.) Beau; settings: postemergence spray, rated about two-three weeks after treatment
Procedure, shortened: as §2

[15] = system: CHEAL Lambsquarters, Common; experiment: Preemergence herbicidal evaluation, CHEAL; type: in vivo, Chenopodium album, L.; settings: preemergence
Procedure, shortened: as §1

GLXMAW Soybean, Williams [16] = experiment: Postemergence herbicidal evaluation, GLXMAW; type: in vivo, Glycine max, (L.) Merr. cv Williams; settings: postemergence spray, rated about two-three weeks after treatment
Procedure, shortened: as §2

[17] = system: TRZAWR Wheat, Winter, cv Riband; experiment: Preemergence herbicidal evaluation, TRZAWR; type: in vivo, Triticum aestivum; settings: preemergence
Procedure, shortened: as §1

ECHOG Barnyardgrass [18] = experiment: Preemergence herbicidal evaluation, ECHOG; type: in vivo, Echinochloa crus-galli, (L.) Beau; settings: preemergence
Procedure, shortened: as §1

[19] = system: TRZAWR Wheat, Winter, cv Riband; experiment: Postemergence herbicidal evaluation, TRZAWR; type: in vivo, Triticum aestivum; settings: postemergence spray, rated about two-three weeks after treatment
Procedure, shortened: as §2

[20] = system: IPOHE Morningglory, Ivyleaf; experiment: Postemergence herbicidal evaluation, IPOHE; type: in vivo, Ipomoea hederacea, (L.) Jacq.; settings: postemergence spray, rated about two-three weeks after treatment
Procedure, shortened: as §2

GALAP Galium [21] = experiment: Preemergence herbicidal evaluation, GALAP; type: in vivo, Galium aparine; settings: preemergence
Procedure, shortened: as §1

AMBEL Ragweed, Common [22] = experiment: Preemergence herbicidal evaluation, AMBEL; type: in vivo, Ambrosia artemisifolia, L.; settings: preemergence
Procedure, shortened: as §1

[23] = system: IPOHE Morningglory, Ivyleaf; experiment: Preemergence herbicidal evaluation, IPOHE; type: in vivo, Ipomoea hederacea, (L.) Jacq.; settings: preemergence
Procedure, shortened: as §1

ABUTH Velvetleaf [24] = experiment: Preemergence herbicidal evaluation, ABUTH; type: in vivo, Abutilon theophrasti, Medic.; settings: preemergence
Procedure, shortened: as §1

COc1ccc(Cl)cc1-n1nnc2cc(F)c(-n3c(=O)cc(C(F)(F)F)n(C)c3=O)cc21 [Example 30]
GLXMAW herbicidal rating (GLXMAW Soybean, Williams [1]; rate 0.016 kg/ha): 1.0
GLXMAW herbicidal rating (GLXMAW Soybean, Williams [1]; rate 0.032 kg/ha): 1.0
GLXMAW herbicidal rating (GLXMAW Soybean, Williams [1]; rate 0.062 kg/ha): 1.0
GLXMAW herbicidal rating (GLXMAW Soybean, Williams [1]; rate 0.125 kg/ha): 2.0
Postemergence herbicidal rating CASOB (CASOB Sicklepod [2]; 0.008 kg/ha): 3.0
Postemergence herbicidal rating CASOB (CASOB Sicklepod [2]; 0.016 kg/ha): 4.0
Postemergence herbicidal rating CASOB (CASOB Sicklepod [2]; 0.032 kg/ha): 7.0
Postemergence herbicidal rating CASOB (CASOB Sicklepod [2]; 0.062 kg/ha): 8.0
Postemergence herbicidal rating AMBEL (AMBEL Ragweed, Common [3]; 0.008 kg/ha): 9.0
Postemergence herbicidal rating AMBEL (AMBEL Ragweed, Common [3]; 0.016 kg/ha): 9.0
Postemergence herbicidal rating AMBEL (AMBEL Ragweed, Common [3]; 0.032 kg/ha): 9.0
Postemergence herbicidal rating AMBEL (AMBEL Ragweed, Common [3]; 0.062 kg/ha): 9.0
Postemergence herbicidal rating SETVI (SETVI Foxtail, Green [4]; 0.008 kg/ha): 7.0
Postemergence herbicidal rating SETVI (SETVI Foxtail, Green [4]; 0.016 kg/ha): 6.0
Postemergence herbicidal rating SETVI (SETVI Foxtail, Green [4]; 0.032 kg/ha): 9.0
Postemergence herbicidal rating SETVI (SETVI Foxtail, Green [4]; 0.062 kg/ha): 9.0
CASOB herbicidal rating (CASOB Sicklepod [5]; rate 0.016 kg/ha): 0.0
CASOB herbicidal rating (CASOB Sicklepod [5]; rate 0.032 kg/ha): 1.0
CASOB herbicidal rating (CASOB Sicklepod [5]; rate 0.062 kg/ha): 0.0
CASOB herbicidal rating (CASOB Sicklepod [5]; rate 0.125 kg/ha): 2.0
Postemergence herbicidal rating CHEAL ([6]; 0.008 kg/ha): 9.0
Postemergence herbicidal rating CHEAL ([6]; 0.016 kg/ha): 9.0
Postemergence herbicidal rating CHEAL ([6]; 0.032 kg/ha): 9.0
Postemergence herbicidal rating CHEAL ([6]; 0.062 kg/ha): 9.0
SETVI herbicidal rating (SETVI Foxtail, Green [7]; rate 0.016 kg/ha): 4.0
SETVI herbicidal rating (SETVI Foxtail, Green [7]; rate 0.032 kg/ha): 7.0
SETVI herbicidal rating (SETVI Foxtail, Green [7]; rate 0.062 kg/ha): 9.0
SETVI herbicidal rating (SETVI Foxtail, Green [7]; rate 0.125 kg/ha): 9.0
Postemergence herbicidal rating ORYSAT (ORYSAT Rice, Tebonnet [8]; 0.008 kg/ha): 3.5
Postemergence herbicidal rating ORYSAT (ORYSAT Rice, Tebonnet [8]; 0.016 kg/ha): 3.5
Postemergence herbicidal rating ORYSAT (ORYSAT Rice, Tebonnet [8]; 0.032 kg/ha): 4.0
Postemergence herbicidal rating ORYSAT (ORYSAT Rice, Tebonnet [8]; 0.062 kg/ha): 4.5
Postemergence herbicidal rating ABUTH (ABUTH Velvetleaf [9]; 0.008 kg/ha): 9.0
Postemergence herbicidal rating ABUTH (ABUTH Velvetleaf [9]; 0.016 kg/ha): 9.0
Postemergence herbicidal rating ABUTH (ABUTH Velvetleaf [9]; 0.032 kg/ha): 9.0
Postemergence herbicidal rating ABUTH (ABUTH Velvetleaf [9]; 0.062 kg/ha): 9.0
Postemergence herbicidal rating GALAP (GALAP Galium [10]; 0.008 kg/ha): 1.0
Postemergence herbicidal rating GALAP (GALAP Galium [10]; 0.016 kg/ha): 3.0
Postemergence herbicidal rating GALAP (GALAP Galium [10]; 0.032 kg/ha): 4.0
Postemergence herbicidal rating GALAP (GALAP Galium [10]; 0.062 kg/ha): 4.0
Postemergence herbicidal rating ZEAMX (ZEAMX Corn, Field [11]; 0.008 kg/ha): 4.5
Postemergence herbicidal rating ZEAMX (ZEAMX Corn, Field [11]; 0.016 kg/ha): 4.5
Postemergence herbicidal rating ZEAMX (ZEAMX Corn, Field [11]; 0.032 kg/ha): 5.0
Postemergence herbicidal rating ZEAMX (ZEAMX Corn, Field [11]; 0.062 kg/ha): 5.0
ORYSAT herbicidal rating (ORYSAT Rice, Tebonnet [12]; rate 0.016 kg/ha): 0.0
ORYSAT herbicidal rating (ORYSAT Rice, Tebonnet [12]; rate 0.032 kg/ha): 1.0
ORYSAT herbicidal rating (ORYSAT Rice, Tebonnet [12]; rate 0.062 kg/ha): 2.0
ORYSAT herbicidal rating (ORYSAT Rice, Tebonnet [12]; rate 0.125 kg/ha): 4.0
ZEAMX herbicidal rating (ZEAMX Corn, Field [13]; rate 0.016 kg/ha): 1.0
ZEAMX herbicidal rating (ZEAMX Corn, Field [13]; rate 0.032 kg/ha): 3.0
ZEAMX herbicidal rating (ZEAMX Corn, Field [13]; rate 0.062 kg/ha): 5.0
ZEAMX herbicidal rating (ZEAMX Corn, Field [13]; rate 0.125 kg/ha): 7.0
Postemergence herbicidal rating ECHCG (ECHOG Barnyardgrass [14]; 0.008 kg/ha): 2.0
Postemergence herbicidal rating ECHCG (ECHOG Barnyardgrass [14]; 0.016 kg/ha): 4.0
Postemergence herbicidal rating ECHCG (ECHOG Barnyardgrass [14]; 0.032 kg/ha): 4.0
Postemergence herbicidal rating ECHCG (ECHOG Barnyardgrass [14]; 0.062 kg/ha): 6.0
CHEAL herbicidal rating ([15]; rate 0.016 kg/ha): 9.0
CHEAL herbicidal rating ([15]; rate 0.032 kg/ha): 9.0
CHEAL herbicidal rating ([15]; rate 0.062 kg/ha): 9.0
CHEAL herbicidal rating ([15]; rate 0.125 kg/ha): 9.0
Postemergence herbicidal rating GLXMAW (GLXMAW Soybean, Williams [16]; 0.008 kg/ha): 6.5
Postemergence herbicidal rating GLXMAW (GLXMAW Soybean, Williams [16]; 0.016 kg/ha): 6.5
Postemergence herbicidal rating GLXMAW (GLXMAW Soybean, Williams [16]; 0.032 kg/ha): 8.0
Postemergence herbicidal rating GLXMAW (GLXMAW Soybean, Williams [16]; 0.062 kg/ha): 8.0
TRZAWR herbicidal rating ([17]; rate 0.016 kg/ha): 0.0
TRZAWR herbicidal rating ([17]; rate 0.032 kg/ha): 1.0
TRZAWR herbicidal rating ([17]; rate 0.062 kg/ha): 2.0
TRZAWR herbicidal rating ([17]; rate 0.125 kg/ha): 2.0
ECHCG herbicidal rating (ECHOG Barnyardgrass [18]; rate 0.016 kg/ha): 1.0
ECHCG herbicidal rating (ECHOG Barnyardgrass [18]; rate 0.032 kg/ha): 5.0
ECHCG herbicidal rating (ECHOG Barnyardgrass [18]; rate 0.062 kg/ha): 7.0
ECHCG herbicidal rating (ECHOG Barnyardgrass [18]; rate 0.125 kg/ha): 7.0
Postemergence herbicidal rating TRZAWR ([19]; 0.008 kg/ha): 3.5
Postemergence herbicidal rating TRZAWR ([19]; 0.016 kg/ha): 3.5
Postemergence herbicidal rating TRZAWR ([19]; 0.032 kg/ha): 4.0
Postemergence herbicidal rating TRZAWR ([19]; 0.062 kg/ha): 4.5
Postemergence herbicidal rating IPOHE ([20]; 0.008 kg/ha): 9.0
Postemergence herbicidal rating IPOHE ([20]; 0.016 kg/ha): 9.0
Postemergence herbicidal rating IPOHE ([20]; 0.032 kg/ha): 9.0
Postemergence herbicidal rating IPOHE ([20]; 0.062 kg/ha): 9.0
GALAP herbicidal rating (GALAP Galium [21]; rate 0.016 kg/ha): 2.0
GALAP herbicidal rating (GALAP Galium [21]; rate 0.032 kg/ha): 2.0
GALAP herbicidal rating (GALAP Galium [21]; rate 0.062 kg/ha): 3.0
GALAP herbicidal rating (GALAP Galium [21]; rate 0.125 kg/ha): 4.0
AMBEL herbicidal rating (AMBEL Ragweed, Common [22]; rate 0.016 kg/ha): 0.0
AMBEL herbicidal rating (AMBEL Ragweed, Common [22]; rate 0.032 kg/ha): 0.0
AMBEL herbicidal rating (AMBEL Ragweed, Common [22]; rate 0.062 kg/ha): 3.0
AMBEL herbicidal rating (AMBEL Ragweed, Common [22]; rate 0.125 kg/ha): 6.0
IPOHE herbicidal rating ([23]; rate 0.016 kg/ha): 0.0
IPOHE herbicidal rating ([23]; rate 0.032 kg/ha): 0.0
IPOHE herbicidal rating ([23]; rate 0.062 kg/ha): 4.0
IPOHE herbicidal rating ([23]; rate 0.125 kg/ha): 3.0
ABUTH herbicidal rating (ABUTH Velvetleaf [24]; rate 0.016 kg/ha): 0.0
ABUTH herbicidal rating (ABUTH Velvetleaf [24]; rate 0.125 kg/ha): 6.0
